From patent US20060004197A1, “Sulfonamide-based compounds as protein tyrosine kinase inhibitors” (priority 2004, published 2006) come the findings set out here.

Where only a bound is given, the exact number is not on record here.

Common to all, as to assay type: biochemical
Conditions in all cases: NI = no inhibition at 100 μg/mL

Assay [1] concerns the target FGF receptor (FGFr). The experiment in a line: FGFr tyrosine kinase activity, poly E4Y / 32P-ATP phosphorylation assay.
In assay [2] the target is T1, Recombinant human Src (Homo sapiens, UniProt P12931).
T1 construct: made in house; host or cells: baculovirus-insect cell system
T1 sequence (P12931 whole entry): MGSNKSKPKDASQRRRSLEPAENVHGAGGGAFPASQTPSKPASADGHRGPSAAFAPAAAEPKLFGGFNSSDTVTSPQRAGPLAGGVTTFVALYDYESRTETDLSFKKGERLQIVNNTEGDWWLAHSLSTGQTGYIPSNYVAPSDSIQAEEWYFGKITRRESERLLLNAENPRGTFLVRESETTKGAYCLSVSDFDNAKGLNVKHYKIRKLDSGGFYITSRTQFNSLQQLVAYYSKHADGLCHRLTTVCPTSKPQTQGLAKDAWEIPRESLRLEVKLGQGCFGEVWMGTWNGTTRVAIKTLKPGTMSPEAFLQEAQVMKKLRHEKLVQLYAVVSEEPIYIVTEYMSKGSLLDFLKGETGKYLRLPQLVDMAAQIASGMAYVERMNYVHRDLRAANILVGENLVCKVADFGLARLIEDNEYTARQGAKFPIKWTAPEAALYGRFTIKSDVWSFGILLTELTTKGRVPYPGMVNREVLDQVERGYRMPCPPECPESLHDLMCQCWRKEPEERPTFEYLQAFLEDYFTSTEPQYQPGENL
The experiment in a line: Src tyrosine kinase activity, poly E4Y / 32P-ATP phosphorylation assay.

The target in assay [3] is Recombinant Csk (Homo sapiens, UniProt P41240). The experiment in a line: Csk tyrosine kinase activity, poly E4Y / 32P-ATP phosphorylation assay.
Chain of Recombinant Csk (P41240 whole entry, species assumed): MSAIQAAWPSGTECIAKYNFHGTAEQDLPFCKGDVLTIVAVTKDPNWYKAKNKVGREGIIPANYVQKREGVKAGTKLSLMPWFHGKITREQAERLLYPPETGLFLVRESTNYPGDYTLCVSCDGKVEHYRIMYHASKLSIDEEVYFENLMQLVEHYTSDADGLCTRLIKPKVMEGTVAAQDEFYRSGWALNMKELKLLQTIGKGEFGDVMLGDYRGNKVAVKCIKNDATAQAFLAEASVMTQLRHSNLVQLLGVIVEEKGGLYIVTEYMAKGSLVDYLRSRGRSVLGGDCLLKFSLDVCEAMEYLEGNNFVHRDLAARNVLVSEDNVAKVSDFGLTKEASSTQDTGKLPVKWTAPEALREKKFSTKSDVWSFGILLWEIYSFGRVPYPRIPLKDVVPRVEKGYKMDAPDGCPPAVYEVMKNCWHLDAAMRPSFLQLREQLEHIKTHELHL

Usually IC50 stands for the concentration at which inhibition is half-maximal. On to `Cc1ccc(S(=O)(=O)Nc2cc(SCc3ccc(Cl)cc3)c([N+](=O)[O-])cc2NS(=O)(=O)c2ccc(C)cc2)cc1` [Compound 4q, N-[4-(4-chloro-benzylsulfanyl)-5-nitro-2-(4-toluenesulfonylamino)-phenyl]-4-toluenesulfonamide], for which the IC50 in assay [1] (Table 2, Formula I compounds) was 2.7 µM; in assay [2] (Table 2, Formula I compounds), 1 µM; in assay [3] (Table 2, Formula I compounds), 4.1 µM.
For `Cc1ccc(S(=O)(=O)Nc2cc(SCc3ccccc3Cl)c([N+](=O)[O-])cc2NS(=O)(=O)c2ccc(C)cc2)cc1` [Compound 4r, N-[4-(2-chloro-benzylsulfanyl)-5-nitro-2-(4-toluenesulfonylamino)-phenyl]-4-toluenesulfonamide], in that order: 1.9 µM, 0.65 µM and 4.2 µM.
With `COc1ccc(CSc2cc(NS(=O)(=O)c3ccc(C)cc3)c(NS(=O)(=O)c3ccc(C)cc3)cc2[N+](=O)[O-])cc1` [Compound 4s, N-[4-(4-methoxy-benzylsulfanyl)-5-nitro-2-(4-toluenesulfonylamino)-phenyl]-4-toluenesulfonamide], the concentration for half-maximal inhibition (IC50) was 4.3 µM in assay [1] (Table 2, Formula I compounds); 1.3 µM in assay [2] (Table 2, Formula I compounds); 5.7 µM in assay [3] (Table 2, Formula I compounds).
Consider `CS(=O)(=O)Nc1cc(Sc2ccc(Cl)cc2)c([N+](=O)[O-])cc1NS(C)(=O)=O` [Compound 4u, N-[5-(4-chloro-phenylsulfanyl)-2-methanesulfonylamino-4-nitro-phenyl]-methanesulfonamide], for which the half-inhibitory concentration (IC50) in assay [1] (Table 2, Formula I compounds) was 188 µM; in assay [2] (Table 2, Formula I compounds), 590 µM; in assay [3] (Table 2, Formula I compounds) it was 333 µM.
`Cc1ccc(S(=O)(=O)Nc2cc(-c3ccccc3)c([N+](=O)[O-])cc2NS(=O)(=O)c2ccc(C)cc2)cc1` [Compound 8, N-[5-nitro-4-phenyl-2-(4-toluenesulfonylamino)-phenyl]-4-toluenesulfonamide]: the IC50 in assay [1] (Table 2, Formula I compounds) is 4.9 µM; in assay [2] (Table 2, Formula I compounds), 1.7 µM; in assay [3] (Table 2, Formula I compounds), 10.4 µM.
With `CCc1ccc(S(=O)(=O)Nc2ccc(Oc3ccc(OC)cc3)cc2NS(=O)(=O)c2ccc(CC)cc2)cc1` [Compound 12a, 4-ethyl-N-[2-(4-ethyl-benzenesulfonylamino)-4-(4-methoxy-phenoxy)-phenyl]-benzenesulfonamide], the IC50 was 44 µM in assay [1] (Table 3, Formula II compounds); 23 µM in assay [2] (Table 3, Formula II compounds); greater than 176 µM in assay [3] (Table 3, Formula II compounds).
Regarding `Cc1ccc(S(=O)(=O)Nc2ccc(Oc3ccc(CC(=O)O)cc3)cc2NS(=O)(=O)c2ccc(C)cc2)cc1` [Compound 12aa, {4-[3,4-bis(4-toluenesulfonylamino)-phenoxy]-phenyl}-acetic acid], the IC50 in assay [1] (Table 3, Formula II compounds) was 10.6 µM; in assay [2] (Table 3, Formula II compounds) it was 6.7 µM; in assay [3] (Table 3, Formula II compounds), 77 µM.
In the same order, the values of `COc1ccc(Oc2ccc(NS(=O)(=O)c3ccc(C(C)C)cc3)c(NS(=O)(=O)c3ccc(C(C)C)cc3)c2)cc1` [Compound 12b, 4-isopropyl-N-[2-(4-isopropyl-benzenesulfonylamino)-4-(4-methoxy-phenoxy)-phenyl]-benzenesulfonamide] are 45 µM, 18.5 µM and greater than 168 µM.
As to `Cc1ccc(S(=O)(=O)Nc2ccc(OCCCO)cc2NS(=O)(=O)c2ccc(C)cc2)cc1` [Compound 12bb, N-[4-(3-hydroxy-propoxy)-2-(4-toluenesulfonylamino)-phenyl]-4-toluenesulfonamide], the “IC50 (μM) FGFr” value in assay [1] (Table 3, Formula II compounds) was “NI (NI = no inhibition at 100 μg/mL)”. For the same compound, the IC50 in assay [2] (Table 3, Formula II compounds) is greater than 204 µM; in assay [3] (Table 3, Formula II compounds), greater than 204 µM.
As for `COc1ccc(Oc2ccc(NS(=O)(=O)c3ccc(Cl)cc3)c(NS(=O)(=O)c3ccc(Cl)cc3)c2)cc1` [Compound 12c, 4-chloro-N-[2-(4-chloro-benzenesulfonylamino)-4-(4-methoxy-phenoxy)-phenyl]-benzenesulfonamide], the IC50 in assay [1] (Table 3, Formula II compounds) came to 19 µM; in assay [2] (Table 3, Formula II compounds), 8.6 µM; in assay [3] (Table 3, Formula II compounds), 95 µM.
